This is an account of results in US20240293430A1, “WITHAFERIN A AND IMMUNE CHECKPOINT BLOCKER COMBINATION THERAPIES” (University of South Florida, priority 2023, published 2024).

The structures appear in SMILES notation.

Assay [1] relates to ROS levels in NSCLC cell lines. Nature of the assay: ROS levels with ROS indicator CM-H2DCFDA. It counts as cell-based, mouse (LLC), human (H1650. The conditions noted are these: 24 h; WFA 0.6 μM (LLC, H1650), 4 μM (A549); NAC 5 mM.
Assay [2] has as its system immunosuppressive MDSC population. As to conditions: mouse, in vivo; cited from earlier work.
Assay [3] concerns PD-L1 expression in LLC, H1650, and A549 cell lines. Put plainly: PD-L1 expression in NSCLC cell lines (flow cytometry, qRT-PCR, western blot). It counts as cell-based, mouse (LLC), human (H1650. On the procedure: FIGS. 3A-3F depict that WFA upregulates PD-L1 surface expression in NSCLC cell lines. Cells were treated with WFA for 48 h. (FIGS. 3A, 3C, 3E) PD-L1 surface expression determined using flow cytometry LLC (FIG. 3A), H1650 (FIG. 3C), and A549 (FIG. 3E). (FIGS. 3B, 3D, 3F) PD-L1 expression was measured using qRT-PCR LLC (FIG. 3B), H1650 (FIG. 3D), A549 (FIG. 3F). PCR experiments were repeated twice and the mean±SEM of the technical replicates are represented. For the rest, the means of two independent experiments ±SEM are shown, and statistical significance was calculated using one-way ANOVA and a Fisher LSD post hoc test where * is p<0.05, ** is p<0.01, and **** is p <0.0001.
FIGS. 8A-8G depict that WFA induced ICD and PD-L1 upregulation in colorectal cancer cell lines. WFA increased the levels of ecto-CRT in the murine colorectal cancer cell line (FIG. 8A) MC-38 and human cell line (FIG. 8B) HCT-116. WFA increased the expression of PD-L1 in both (FIG. 8C) MC-38 and (FIG. 8D) HCT-116 cells. […] H1650 cells (at a higher density) were treated with a higher concentration of WFA (2 and 4 μM) to facilitate cell collection and protein isolation. The band density was quantified using Image J software and normalized to the housekeeping protein. The fold change from untreated control was averaged from two independent experiments ±SEM and one-way ANOVA was used to calculate the statistical significance. A Fisher LSD post hoc test was performed to compare the treatments to the control in (FIG. 8E) LLC, (FIG. 8F) H1650, (FIG. 8G) A549 cells. * p<0.05, ** p<0.01, *** p<0.001, **** p<0.0001. […]
Total cellular RNA was isolated from collected cell pellets using TRIzol reagent (Invitrogen, Waltham, MA, USA) and then quantified using the 2000 Nanodrop spectrophotometer (Thermo Fisher Scientific, Waltham, MA, USA). cDNA synthesis was performed using the Verso cDNA synthesis kit (Thermo Fisher Scientific, Waltham, MA, USA). qPCR was then performed using Forget-Me-Not EvaGreen qPCR Master Mix (Biotium, Fremont, CA, USA) in a Bio-Rad CFX384 thermocycler according to the manufacturer's instructions. […]

In the case of `CC1=C(CO)C(=O)O[C@@H]([C@@H](C)[C@H]2CC[C@H]3[C@@H]4C[C@H]5O[C@]56[C@@H](O)C=CC(=O)[C@]6(C)[C@H]4CC[C@]23C)C1` [WFA, Withaferin A], in assay [1], the ROS levels entry is recorded as “increased”. The “MDSC tumor infiltration and immunosuppressive function” value in assay [2] is on record as “reducing”. The PD-L1 surface expression entry in assay [3] (flow cytometry, 48 h, LLC, H1650, A549) was “consistently increased”. Also, the “PD-L1 expression (mRNA)” value in assay [3] (qRT-PCR) was “induced”. Besides, the “PD-L1 expression (protein)” value in assay [3] (western blotting) is “induced”.
